Assay: Fluorescence properties and quantum yield measurements of the BAA library
Type: physicochemical
Set-up: FWHM (full-width-at half max): unit not given here
Settings: anhydrous DMSO; for λmax ABS / λmax EM: polystyrene 96 well plate; for FWHM (full-width-at half max): emission; for φfl (quantum yield): relative to reference fluorophore at three concentrations
Experimental: General Instruments. Synthesized sample purification was performed with an Agilent 1260 Infinity HPLC utilizing a C18 column (150mm×21.2 mm). MS (HRMS, ESI) spectra data was collected with an Agilent 6244 TOF LC/MS with diode array detector VL+ and C18 column (4.6 mm×50 mm). Absorbance and fluorescence data were measured on a SpectraMax M5 Microplate reader. NMR spectra, ^1H and ^13C, were recorded on a Bruker ARK400 spectrometer. BAA microscopy screening in cells for organelle specificity and signal-to-background ratio was completed with an Axio Zeiss Light Microscope and 63× oil immersion objective.
Fluorescence Properties and Quantum Yield Measurements. Spectroscopic characterizations were performed in anhydrous DMSO in polystyrene 96 well plate. Analysis included the maximum absorbance wavelength, maximum fluorescence emission wavelength, full-width-at half max, and quantum yield. Quantum yields (φfl) were determined by comparing the area under the emission spectrum of the BAA compound to a reference fluorophore solution at three concentrations using equation 1, where Grad represents the gradient from the plots of integrated fluorescence intensity vs absorbance at three concentrations and q is the refractive index of the solvent. Fluorescein in 0.1 M NaOH (φfl=0.91)^3 was the reference for samples with a max absorbance up to 510 nm, where an excitation of 470 nm was used with the emission integrated between 490 to 800 nm. Rhodamine B in ethanol (φfl=0.70) was the reference for samples with a max absorbance between 511-595 nm, where an excitation of 525 nm was used with the emission integrated between 545 to 800 nm. Cresyl violet in methanol (φfl=0.54)^4 was the reference for samples with a max absorbance above 595 nm, where an excitation of 570 nm was used with the emission integrated between 590 to 800 nm.

SMILES	Stokes Shift [nm]	λmax ABS [nm]	λmax EM [nm]	FWHM (full-width-at half max)	φfl (quantum yield)
CC1=CC(C=Cc2cc(F)ccc2O)=[N+]2C1=Cc1ccc(C(=Cc3cc(F)ccc3O)CC(=O)O)n1[B-]2(F)F [BAA-31b]	12	576	588	34	0.28
CC1=CC(C=Cc2ccc(Oc3ccc([N+](=O)[O-])cc3)cc2)=[N+]2C1=Cc1ccc(CCC(=O)O)n1[B-]2(F)F [BAA-32a]	10	574	584	32	0.23
CC1=CC(C=Cc2ccc(Br)cc2S(C)(=O)=O)=[N+]2C1=Cc1ccc(CCC(=O)O)n1[B-]2(F)F [BAA-33a]	12	575	587	35	0.15
CC1=CC(C=Cc2cnc(-c3ccc(Cl)cc3)s2)=[N+]2C1=Cc1ccc(C(=Cc3cnc(-c4ccc(Cl)cc4)s3)CC(=O)O)n1[B-]2(F)F [BAA-34b]	11	570	581	31	0.96
CC1=CC(C=Cc2ccccc2Oc2ccc(C#N)cc2)=[N+]2C1=Cc1ccc(C(=Cc3ccccc3Oc3ccc(C#N)cc3)CC(=O)O)n1[B-]2(F)F [BAA-35b]	9	571	580	32	0.25
CC1=CC(C=Cc2ccc(OCc3sccc3C#N)cc2)=[N+]2C1=Cc1ccc(C(=Cc3ccc(OCc4sccc4C#N)cc3)CC(=O)O)n1[B-]2(F)F [BAA-36b]	13	579	592	37	0.35
CC1=CC(C=Cc2ccc(-c3cccnc3)cc2)=[N+]2C1=Cc1ccc(CCC(=O)O)n1[B-]2(F)F [BAA-37a]	10	568	578	55	0.54
CC1=CC(C=Cc2ccc(-c3cccnc3)cc2)=[N+]2C1=Cc1ccc(C(=Cc3ccc(-c4cccnc4)cc3)CC(=O)O)n1[B-]2(F)F [BAA-37b]	9	569	578	30	0.55
CC1=CC(C=Cc2cccc(N3CCCC3)n2)=[N+]2C1=Cc1ccc(CCC(=O)O)n1[B-]2(F)F [BAA-38a]	2	579	581	33	0.07
CC1=CC(C=Cc2ccc(Cl)nc2)=[N+]2C1=Cc1ccc(CCC(=O)O)n1[B-]2(F)F [BAA-39a]	51	606	657	79	0.19
COc1cc(C=CC2=[N+]3C(=Cc4ccc(C(=Cc5ccc(OCc6cccc(C(F)(F)F)c6)c(OC)c5)CC(=O)O)n4[B-]3(F)F)C(C)=C2)ccc1OCc1cccc(C(F)(F)F)c1 [BAA-40b]	18	583	601	45	0.26
COc1cc(C=CC2=[N+]3C(=Cc4ccc(C(=Cc5ccc(OCc6ccccc6C)c(OC)c5)CC(=O)O)n4[B-]3(F)F)C(C)=C2)ccc1OCc1ccccc1C [BAA-41b]	20	582	602	47	0.36
CC1=CC(C=Cc2ccc(OC(=O)c3ccc(Cl)cc3Cl)cc2)=[N+]2C1=Cc1ccc(CCC(=O)O)n1[B-]2(F)F [BAA-42a]	10	570	580	30	0.36
CC1=CC(C=Cc2ccc(OC(=O)c3ccc(Cl)cc3)cc2)=[N+]2C1=Cc1ccc(CCC(=O)O)n1[B-]2(F)F [BAA-43a]	10	569	579	31	0.45
COc1cc(C=CC2=[N+]3C(=Cc4ccc(C(=Cc5ccc(OCc6cccc(C(F)(F)F)c6)c(OC)c5)CC(=O)O)n4[B-]3(F)F)C(C)=C2)ccc1OCc1cccc(C(F)(F)F)c1 [BAA-44b]	18	582	600	43	0.28
CCOc1ccc(C=CC2=[N+]3C(=Cc4ccc(CCC(=O)O)n4[B-]3(F)F)C(C)=C2)c(OCC)c1 [BAA-47a]	22	589	611	47	0.33
CC1=CC(C=Cc2c[nH]c3ccc(OCc4ccccc4)cc23)=[N+]2C1=Cc1ccc(CCC(=O)O)n1[B-]2(F)F [BAA-48a]	38	603	641	60	0.45
CC1=CC(C=Cc2cc(-n3ccnc3)ccc2C)=[N+]2C1=Cc1ccc(CCC(=O)O)n1[B-]2(F)F [BAA-50a]	10	571	581	33	0.28
CC1=CC(C=Cc2cc(-n3ccnc3)ccc2C)=[N+]2C1=Cc1ccc(C(=Cc3cc(-n4ccnc4)ccc3C)CC(=O)O)n1[B-]2(F)F [BAA-50b]	9	572	581	34	0.12
CCOc1ccc2[nH]c(=O)cc(C=CC3=[N+]4C(=Cc5ccc(CCC(=O)O)n5[B-]4(F)F)C(C)=C3)c2c1 [BAA-51a]	13	594	607	42	0.06
C#CCOc1c(Cl)cc(C=CC2=[N+]3C(=Cc4ccc(CCC(=O)O)n4[B-]3(F)F)C(C)=C2)cc1OC [BAA-52a]	8	577	585	51	0.04
COc1cc(C=CC2=[N+]3C(=Cc4ccc(CCC(=O)O)n4[B-]3(F)F)C(C)=C2)cc(OC)c1 [BAA-53a]	11	570	581	30	0.44
CC1=CC(/C=C/c2ccc(Cl)c(F)c2)=[N+]2C1=Cc1ccc(CCC(=O)O)n1[B-]2(F)F [BAA-54a]	8	573	581	46	0.04
CC1=CC(C=Cc2cnn(-c3ccccc3)c2C)=[N+]2C1=Cc1ccc(CCC(=O)O)n1[B-]2(F)F [BAA-55a]	16	576	592	35	0.75
CC1=CC(C=Cc2cnn(-c3ccccc3)c2C)=[N+]2C1=Cc1ccc(C(=Cc3cnn(-c4ccccc4)c3C)CC(=O)O)n1[B-]2(F)F [BAA-55b]	16	575	591	38	0.75
CC1=CC(C=Cc2ccc(-c3cccs3)nc2)=[N+]2C1=Cc1ccc(CCC(=O)O)n1[B-]2(F)F [BAA-56a]	10	585	595	32	0.91
CC1=CC(C=Cc2ccc(-c3cccs3)nc2)=[N+]2C1=Cc1ccc(C(=Cc3ccc(-c4cccs4)nc3)CC(=O)O)n1[B-]2(F)F [BAA-56b]	11	586	597	35	0.15
CC1=CC(C=Cc2cnn(-c3ccccc3C)c2C)=[N+]2C1=Cc1ccc(CCC(=O)O)n1[B-]2(F)F [BAA-57a]	16	574	590	45	0.75
CC1=CC(C=Cc2cnn(-c3ccccc3C)c2C)=[N+]2C1=Cc1ccc(C(=Cc3cnn(-c4ccccc4C)c3C)CC(=O)O)n1[B-]2(F)F [BAA-57b]	16	575	591	38	0.75
COC(=O)c1ccc(-c2cccc(C=CC3=[N+]4C(=Cc5ccc(CCC(=O)O)n5[B-]4(F)F)C(C)=C3)c2)cc1 [BAA-58a]	10	572	582	30	0.70
